The text below walks through data of US20250186439A1, “PYK2 INHIBITION MODULATES IMMUNE CELL FUNCTION” (The Children's Medical Center Corporation, priority 2022, published 2025).

One test relates to Raw264.7. Nature of the test: RANKL-induced osteoclast differentiation of Raw264.7 cells (TRAP activity and staining). It is filed as cell-based, mouse. The following applies: for TRAP activity: listed as Pyk2 inhibitor. How it is done:
FIGS. 8A-8F. Effect of Pyk2 inhibition on RANKL induced osteoclast differentiation. FIG. 8A: Schematic depicting the experimental design for testing the effect of Pyk2 inhibition on RANKL-induced osteoclast differentiation. On day 1, Raw264.7 macrophages are pretreated with Pyk2 inhibitor and then treated on day 2 with fresh culture medium comprising 100 ng/mL RANKL to stimulate differentiation to osteoclasts. The quantity of mature, differentiated osteoclasts is measured by tartrate-resistant acid […] (TRAP) activity on day 6. FIG. 8B: TRAP activity of mature, differentiated osteoclasts treated as described in FIG. 8A. […] FIG. 8C: Phase-contrast microscope images of TRAP-stained osteoclasts, treated as described in FIG. 8A, at ×20 magnification. FIG. 8D: Schematic depicting the experimental design for testing the effect of Pyk2 inhibition on RANKL-induced osteoclast differentiation. On day 2, Raw264.7 macrophages are treated with fresh culture medium comprising 100 ng/mL RANKL to stimulate differentiation to osteoclasts, then are subsequently treated on day 3 with Pyk2 inhibitor. FIG. 8E: TRAP activity of mature, differentiated osteoclasts treated as described in FIG. 8D. […] FIG. 8F: Phase-contrast microscope images of TRAP-stained osteoclasts, treated as described in FIG. 8D, at ×20 magnification.
To explore this question, an Abelson leukemia virus transformed monocyte/macrophage-like cell line derived from BALB/c mice, Raw264.7, was used. To induce differentiation to osteoclasts, Raw264.7 cells were treated with receptor activator of nuclear factor kappa-B ligand (RANKL), also known as osteoclast differentiation factor (ODF). Raw264.7 cells and differentiated osteoclasts were treated with Pyk2 inhibitor, as in Example 2.
Raw264.7 cells were cultured and treated with Pyk2 inhibitors after 24 hours, then differentiated into osteoclasts after 24 hours of Pyk2 inhibitor treatment (FIG. 8A). Four days after differentiation into osteoclasts, the cells were then assessed for tartrate-resistant acid phosphatase (TRAP) activity and presence, as TRAP is a biomarker expressed by mature, differentiated osteoclasts, but not undifferentiated progenitor cells.
Therefore, the effect of Pyk2 inhibition was also assessed by culturing RAW264.7 cells, differentiating into osteoclasts after 2 days, the treating with Pyk2 inhibitor for 24 hours, 1 day after differentiating (FIG. 8D). […] Therefore, Pyk2 inhibition could ultimately result in an increase in bone mass.

The subject of test [1] is MG6 cells. Nature of the test: MG6 microglia viability, morphology and proliferation (Cell Counting Kit-8). Type of test: cell-based, mouse. To be noted: for MG6 cell proliferation: 24 h after CSF-1, listed as Pyk2 inhibitor. How it is done:
(§1) FIGS. 4A-4E. Induction of multinucleated cells by a Pyk2 inhibitor. FIG. 4A: Microscopic images depicting the effect of a Pyk2 inhibitor on the morphology of MG6 cells. MG6 cell line is established with neonatal C57BL/6 mouse microglia that are collected from whole brain and transformed with c-myc oncogene. MG6 cells were stimulated with 100 ng/mL CSF-1 for 48 hours and then cultured for 24 hours with various concentrations of Pyk2 inhibitor: 0 nM, 100 nM, 500 nM and 1000 nM. FIG. 4B: Quantification of the effect of a Pyk2 inhibitor on the proliferation of MG6 cells. MG6 cells were stimulated with CSF-1 and cultured with various concentrations of Pyk2 inhibitor as in FIG. 4A. The baseline proliferation rate is defined as 100 ng/mL CSF-1 treatment for 48 hours. Proliferation of MG6 cells with various concertation of Pyk2 inhibitor treatment is measured using a Cell Counter Kit for 4 hours of incubation. No difference in MG6 cell proliferation is observed at the Pyk2 inhibitor concentration of 100 nM. […] FIG. 4C: Microscopic images depicting multinucleated MG6 cells with 24 hours of 1000 nM Pyk2 inhibitor treatment following 48 hours of 100 ng/mL CSF-1 treatment. […] Multinucleated cells with two or more nuclei are observed as marked with circles in the bottom image. FIG. 4D: Quantification of the proportion of multinucleated cells after 0 nM, 500 nM, and 1000 nM Pyk2 inhibitor treatment. MG6 cells were treated with Pyk2 inhibitor for 24 hours after 48 hours of 100 ng/mL CSF-1 treatment. […] FIG. 4E: Immunohistochemical staining depicting multinucleation of Pyk2 inhibitor treated microglia. […]
(§2) To further assess the function of Pyk2 during neurodegenerative disorders, such as AD, the effect of Pyk2 inhibition was assessed in a microglial cell line. […]
Upon treatment with up to 1000 nM Pyk2 inhibitor, MG6 viability and morphology appeared to be unaffected (FIG. 4A). To assess if Pyk2 inhibition negatively affected proliferation of MG6 cells, treated and untreated cells were quantified using a Cell Counting Kit-8 (Dojindo, Japan CK104) after 4 hours of incubation.

For test [2], the system named is MG6 cells. The test is described as follows: Multinucleation of MG6 microglia (DAPI, Iba1 staining). Type of test: cell-based, mouse. The method, then: as §1, with “microglia. MG6 cells were stained with anti-Tubulin and anti-Iba1, while nuclei were stained with DAPI. Cells were observed via confocal microscopy (×600). MG6 cells were treated without Pyk2 inhibitor (left) or with 1000 nM Pyk2 inhibitor (right) after 48 hours of 100 ng/mL CSF-1 treatment. Scale bar is 20 μm.” for “microglia.”
as §2

A further test relates to microglia. Nature of the test: β-amyloid (Aβ42) brain infusion assay, microglia response in vivo. More on the design: species or system mouse. To be noted: intracerebroventricular infusion before Aβ42 infusion. The source says: FIGS. 9A-9B. FIG. 9A. Aβ brain infusion assay system. Using osmotic pump implanted to mice, an experimental system using intracerebroventricular injection was established to validate the morphological and molecular changes of microglia in response to Aβ42 in vivo. FIG. 9B. Activated microglia in the vicinity of amyloid plaques. Pyk2 inhibitor was infused into Iba1-EGFP transgenic mouse brain for 3 days and then Hylite-555 labelled-AP42 was infused into the brain using osmotic pump for the next 3 days. A 20 μm scale bar is in the bottom-left corner.
To test the morphological and molecular changes of microglia in response to Aβ42 in vivo a β-amyloid brain infusion assay was performed. An in vivo experimental system for […] was established with brain infusion pump inserted to left cerebral ventricle and treated Pyk2 inhibitor for 24 hours before Aβ42 infusion (FIG. 9A).

“Also recorded” adds a separate entry of the source.

For the compound `CN(c1ccccc1CNc1nc(Nc2ccc3c(c2)CC(=O)N3)ncc1C(F)(F)F)S(C)(=O)=O` [PF-431396], the TRAP activity result is “statistically significant reduction; also recorded: significantly reduced” in the test on Raw264.7 (1000 nM for 24 hours, 1 day after RANKL) and “not statistically significant; also recorded: no significant differences” with Raw264.7 (inhibitor pretreatment (up to 1000 nM) before RANKL). Besides, the TRAP staining result is recorded as “apparent reduction” with Raw264.7 (inhibitor for 24 hours, 1 day after RANKL) and “did not reveal any obvious difference” in the test with Raw264.7 (inhibitor pretreatment before RANKL). In addition, the MG6 cell proliferation result in the test with MG6 cells [1] (100 nM (up to 100 nM)) is on record as “No significant change; also recorded: No difference”; with MG6 cells [1] (500 nM or 1000 nM) it was “slight reduction; also recorded: slightly decreased”. Also, in the test on MG6 cells [1] (up to 1000 nM, 24 h after 48 h 100 ng/mL CSF-1), the “MG6 viability and morphology” value is on record as “unaffected”. The “multinucleation of MG6 cells” value with MG6 cells [2] (500 nM, 24 h after 48 h CSF-1) is reported as “insufficient to induce multinucleation”. The “level of Iba1 in cytoplasm of multinucleated MG6 cells” value in the test with MG6 cells [2] (1000 nM) was “increased level”. The “multinucleation of MG6 cells / proportion of multinucleated cells” value with MG6 cells [2] (1000 nM, 24 h after 48 h CSF-1, listed as Pyk2 inhibitor) is recorded as “multinucleation of MG6 cells was observed; also recorded: significantly increased”. Further, in the test on microglia, the “expression of MHC class II molecules (e.g., H2-D1 and H2-K1) in microglia” value was “increased expression”. In the test with microglia, the “phagocytic activity near amyloid plaques” value was “enhanced”. The “proportion of activated microglia” value in the test on microglia (listed as Pyk2 inhibitor) is “a significant proportion of microglia were activated; also recorded: significantly larger proportion”.
